Each block holds one compound with its values, some of them ahead of it.
Experiment: solvent given as SMILES

absorption maximum (in C1CCCCC1): 413 nm | absorption maximum (in C1CCOC1): 413 nm | absorption maximum (in CC#N): 410 nm | absorption maximum (in ClC(Cl)Cl): 413 nm | absorption maximum (in c1ccccc1): 415 nm
SMILES: Cc1cc(C)c(B(c2c(C)cc(C)cc2C)c2cc3ccc4ccccc4c3c3c2ccc2ccccc23)c(C)c1

absorption maximum (in ClC(Cl)Cl): 622 nm
SMILES: F[B-]1(F)n2c(ccc2-c2cccs2)C(c2ccc(Br)cc2)=C2C=CC(c3cccs3)=[N+]21

absorption maximum (in CO): 765 nm
SMILES: CC1(C)C(/C=C/C2=C(c3ccc(C(=O)O)cc3)C(=C/C=C3/N(CCCCS(=O)(=O)[O-])c4ccccc4C3(C)C)/CCC2)=[N+](CCCCS(=O)(=O)[O-])c2ccccc21

absorption maximum (in ClCCl): 574 nm
SMILES: CC1=C(c2ccc(N(C)C)cc2)C(C)=[N+]2C1=C(c1c(-c3ccccn3)nc3ccccn13)c1c(C)c(-c3ccc(N(C)C)cc3)c(C)n1[B-]2(F)F

absorption maximum (in ClCCl): 468 nm
SMILES: Cc1c(C(=O)c2ccc3c4cccc5cccc(c6cccc2c63)c54)c2ccc3cccc4c5cccc6ccc1c(c65)c2c34

absorption maximum (in C1CCCCC1): 398 nm
SMILES: N#Cc1c(-c2ccccc2)cc(N2c3ccccc3Oc3ccccc32)cc1-c1ccccc1

absorption maximum (in C1CCOC1): 439 nm
SMILES: CC(C)(C)c1cc2c3c(c1)c1cc(C(C)(C)C)cc4c1n3B1c3c-2cccc3-c2cc(C(C)(C)C)cc3c5cc(C(C)(C)C)cc-4c5n1c23

absorption maximum (in CC#N): 424 nm
SMILES: COc1ccc(C2=[O+][B-](F)(F)OC(c3ccc4c(c3)Cc3ccccc3-4)=C2)cc1

absorption maximum (in ClCCl): 431 nm
SMILES: CCCCCCCCCCCCN1C(=O)c2c(c3ccc4cc(-c5ccc(F)cc5)c(OC)cc4c3c3c2ccc2cc(-c4ccc(F)cc4)c(OC)cc23)C1=O

absorption maximum (in CN(C)C=O): 575 nm | absorption maximum (in ClC(Cl)Cl): 575 nm
SMILES: O=C1C2=C3c4ccsc4C=CN3C(=O)C2=C2c3ccsc3C=CN12

Further lines, the compound ahead of its results:

SMILES: CC1(C)c2ccccc2N(c2ccc3c(ccc4nc5ccc6cc(N7c8ccccc8C(C)(C)c8ccccc87)ccc6c5nc43)c2)c2ccccc21
absorption maximum (in C1CCCCC1): 413 nm | absorption maximum (in C1CCOC1): 416 nm | absorption maximum (in CN(C)C=O): 418 nm | absorption maximum (in Cc1ccccc1): 416 nm | absorption maximum (in ClCCl): 416 nm

SMILES: COc1ccc(-c2csc(/C(C#N)=N\Nc3ccc(C#N)cc3)n2)cc1
absorption maximum (in CC#N): 401 nm | absorption maximum (in CCO): 403 nm | absorption maximum (in CN(C)C=O): 481 nm | absorption maximum (in Cc1ccccc1): 405 nm | absorption maximum (in ClCCl): 404 nm

SMILES: N#CSC1=CC2=C(c3ccccc3)c3ccc(SC#N)n3[B-](F)(F)[N+]2=C1N1CCOCC1
absorption maximum (in CCCCCC): 560 nm | absorption maximum (in CCOC(C)=O): 554 nm | absorption maximum (in ClCCl): 558 nm

SMILES: CCCCCCC(CCCCCC)N1C(=O)c2cccc3c(-c4ccc(OC)c5ccccc45)ccc(c23)C1=O
absorption maximum (in CCCCCC): 322.6 nm | absorption maximum (in CCCCCCCCCCCCCC): 322.6 nm | absorption maximum (in CCCCCCCCCCCO): 323.8 nm | absorption maximum (in CCCCO): 323.6 nm | absorption maximum (in CN(C)C=O): 323.8 nm | absorption maximum (in Cc1ccccc1): 324 nm | absorption maximum (in ClC(Cl)Cl): 325 nm

SMILES: c1ccc2cc3c4c(ccc3cc2c1)-c1cccc2cccc-4c12
absorption maximum (in CCCCCCC): 407 nm

SMILES: C[Si]1(C)C2=C(c3ccc(N(c4ccccc4)c4ccccc4)cc31)P(=O)(c1ccccc1)c1ccccc12 (stereo unspecified)
absorption maximum (in CC#N): 440 nm | absorption maximum (in CO): 452 nm | absorption maximum (in Cc1ccccc1): 446 nm

SMILES: CCCCCCC(CCCCCC)n1c(=O)c2c3ccc4cccc5c6cccc7ccc(c2c1=O)c(c76)c3c45
absorption maximum (in C1CCCCC1): 335 nm | absorption maximum (in CC#N): 336 nm | absorption maximum (in CC(C)=O): 336 nm | absorption maximum (in CCCCCC): 334 nm | absorption maximum (in CCO): 336 nm | absorption maximum (in CCOCC): 335 nm | absorption maximum (in CS(C)=O): 339 nm | absorption maximum (in Cc1ccccc1): 339 nm | absorption maximum (in ClC(Cl)(Cl)Cl): 338 nm | absorption maximum (in ClC(Cl)Cl): 339 nm

SMILES: CC(C)Nc1cc(F)c(C(=O)c2cc(F)c(NC(C)C)cc2F)cc1F
absorption maximum (in CCO): 357 nm

SMILES: CCCCOc1ccc(-c2cc3c(o2)c(-c2ccc(OCCCC)cc2)c2n3[B-](F)(F)[N+]3=Cc4c(-c5ccc(OCCCC)cc5)c5oc(-c6ccc(OCCCC)cc6)cc5n4[B-](F)(F)[N+]3=C2)cc1
absorption maximum (in C1CCOC1): 619 nm | absorption maximum (in CN(C)C=O): 620 nm | absorption maximum (in CS(C)=O): 625 nm | absorption maximum (in Cc1ccccc1): 626 nm | absorption maximum (in ClC(Cl)Cl): 624 nm | absorption maximum (in ClCCl): 622 nm
